Measured values from PubChem BioAssay AID330 (DTP/NCI, 2004).
Several values for one entry are separate records, joined by “and”; a condition that tells them apart may be missing. Identical values can stand only once. Toxic doses and inconclusive results are not listed.

System: P388 leukemia ip, CD2F1 mice, survival T/C
Assay: NCI In Vivo Anticancer Drug Screen. Data for tumor model P388 Leukemia (intraperitoneal) in CD2F1 (CDF1) mice
Settings: endpoint: median survival time, higher = longer survival
How it was run: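 Mice carrying the transplanted tumor received test compound or vehicle. Survival was recorded in each group, and the value is the treated-group measurement divided by that of the vehicle-treated control group.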

## Cc1c2ccncc2c(C)c2c1[nH]c1ccccc12
dose: 0.31 mg/kg/injection, schedule: Q04DX003 (iv), vehicle: water
  T/C: 99 % of control
dose: 0.63 mg/kg/injection, schedule: Q04DX003 (iv), vehicle: water
  T/C: 107 % of control
dose: 1.25 mg/kg/injection, schedule: Q04DX003 (iv), vehicle: water
  T/C: 99 % of control
dose: 1.56 mg/kg/injection, schedule: Q04DX003 (ip), vehicle: distilled water + Tween-80
  T/C: 92 % of control
dose: 2.5 mg/kg/injection, schedule: Q04DX003 (ip), vehicle: water
  T/C: 100 % of control
dose: 2.5 mg/kg/injection, schedule: Q04DX003 (iv), vehicle: distilled water + Tween-80
  T/C: 107 % of control
dose: 2.5 mg/kg/injection, schedule: Q04DX003 (iv), vehicle: water
  T/C: 94 % of control
dose: 3.12 mg/kg/injection, schedule: Q04DX003 (ip), vehicle: distilled water + Tween-80
  T/C: 100 % of control
dose: 3.13 mg/kg/injection, schedule: Q01DX009 (ip), vehicle: saline with Tween-80
  T/C: 154 % of control
dose: 3.89 mg/kg/injection, schedule: Q04DX003 (ip), vehicle: clinical formulation
  T/C: 111 % of control
dose: 5.0 mg/kg/injection, schedule: Q01DX005 (ip), vehicle: Klucel (hydroxypropylcellulose) (HPC)
  T/C: 156 % of control
dose: 5.0 mg/kg/injection, schedule: Q04DX003 (ip), vehicle: distilled water + Tween-80
  T/C: 110 % of control
dose: 5.0 mg/kg/injection, schedule: Q04DX003 (ip), vehicle: water
  T/C: 106 % of control and 110 % of control
dose: 5.0 mg/kg/injection, schedule: Q04DX003 (iv), vehicle: distilled water + Tween-80
  T/C: 100 % of control
dose: 5.0 mg/kg/injection, schedule: Q04DX003 (iv), vehicle: water
  T/C: 108 % of control
dose: 6.25 mg/kg/injection, schedule: Q01DX009 (ip), vehicle: saline with Tween-80
  T/C: 181 % of control
dose: 6.25 mg/kg/injection, schedule: Q04DX003 (ip), vehicle: clinical formulation
  T/C: 118 % of control and 119 % of control
dose: 6.25 mg/kg/injection, schedule: Q04DX003 (ip), vehicle: distilled water + Tween-80
  T/C: 100 % of control and 121 % of control
dose: 6.25 mg/kg/injection, schedule: Q04DX003 (ip), vehicle: saline with Tween-80
  T/C: 161 % of control
dose: 6.25 mg/kg/injection, schedule: Q04DX003 (ip), vehicle: saline
  T/C: 112 % of control
dose: 6.48 mg/kg/injection, schedule: Q04DX003 (ip), vehicle: clinical formulation
  T/C: 108 % of control
dose: 8.0 mg/kg/injection, schedule: Q01DX005 (ip), vehicle: saline with Tween-80
  T/C: 160 % of control
dose: 8.0 mg/kg/injection, schedule: Q01DX005 (iv), vehicle: saline with Tween-80
  T/C: 115 % of control
dose: 10.0 mg/kg/injection, schedule: Q01DX005 (ip), vehicle: Klucel (hydroxypropylcellulose) (HPC)
  T/C: 153 % of control
dose: 10.0 mg/kg/injection, schedule: Q01DX005 (ip), vehicle: saline with Tween-80
  T/C: 166 % of control
dose: 10.0 mg/kg/injection, schedule: Q04DX003 (ip), vehicle: distilled water + Tween-80
  T/C: 118 % of control
dose: 10.0 mg/kg/injection, schedule: Q04DX003 (ip), vehicle: water
  T/C: 112 % of control
dose: 10.0 mg/kg/injection, schedule: Q04DX003 (iv), vehicle: distilled water + Tween-80
  T/C: 124 % of control
dose: 10.0 mg/kg/injection, schedule: Q04DX003 (iv), vehicle: water
  T/C: 112 % of control
dose: 10.8 mg/kg/injection, schedule: Q04DX003 (ip), vehicle: clinical formulation
  T/C: 110 % of control
dose: 12.5 mg/kg/injection, schedule: Q01DX009 (ip), vehicle: saline with Tween-80
  T/C: 195 % of control and 204 % of control
dose: 12.5 mg/kg/injection, schedule: Q04DX002 (ip), vehicle: Klucel (hydroxypropylcellulose) (HPC)
  T/C: 150 % of control
dose: 12.5 mg/kg/injection, schedule: Q04DX003 (ip), vehicle: alkali diluted with water
  T/C: 164 % of control
dose: 13.0 mg/kg/injection, schedule: Q04DX003 (ip), vehicle: water
  T/C: 123 % of control
dose: 16.0 mg/kg/injection, schedule: Q01DX005 (ip), vehicle: saline with Tween-80
  T/C: 189 % of control
dose: 16.0 mg/kg/injection, schedule: Q01DX005 (iv), vehicle: saline with Tween-80
  T/C: 117 % of control
dose: 16.0 mg/kg/injection, schedule: Q01DX005 (oral), vehicle: saline with Tween-80
  T/C: 155 % of control
dose: 18.0 mg/kg/injection, schedule: Q04DX003 (ip), vehicle: clinical formulation
  T/C: 110 % of control
dose: 20.0 mg/kg/injection, schedule: Q01DX005 (ip), vehicle: Klucel (hydroxypropylcellulose) (HPC)
  T/C: 176 % of control and 177 % of control
dose: 20.0 mg/kg/injection, schedule: Q01DX005 (ip), vehicle: saline with Tween-80
  T/C: 200 % of control
dose: 20.0 mg/kg/injection, schedule: Q01DX005 (iv), vehicle: saline with Tween-80
  T/C: 111 % of control
dose: 20.0 mg/kg/injection, schedule: Q04DX003 (ip), vehicle: distilled water + Tween-80
  T/C: 157 % of control
dose: 20.0 mg/kg/injection, schedule: Q04DX003 (ip), vehicle: water
  T/C: 163 % of control
dose: 21.6 mg/kg/injection, schedule: Q04DX002 (ip), vehicle: Klucel (hydroxypropylcellulose) (HPC)
  T/C: 171 % of control
dose: 21.6 mg/kg/injection, schedule: Q04DX003 (ip), vehicle: water
  T/C: 150 % of control
dose: 25.0 mg/kg/injection, schedule: Q01DX009 (ip), vehicle: saline with Tween-80
  T/C: 204 % of control
dose: 25.0 mg/kg/injection, schedule: Q04DX002 (ip), vehicle: Klucel (hydroxypropylcellulose) (HPC)
  T/C: 153 % of control
dose: 25.0 mg/kg/injection, schedule: Q04DX003 (ip), vehicle: alkali diluted with water
  T/C: 183 % of control
dose: 25.0 mg/kg/injection, schedule: Q04DX003 (ip), vehicle: clinical formulation
  T/C: 178 % of control and 180 % of control
dose: 25.0 mg/kg/injection, schedule: Q04DX003 (ip), vehicle: water
  T/C: 163 % of control
dose: 30.0 mg/kg/injection, schedule: Q04DX003 (ip), vehicle: clinical formulation
  T/C: 198 % of control
dose: 32.0 mg/kg/injection, schedule: Q01DX005 (ip), vehicle: saline with Tween-80
  T/C: 207 % of control
dose: 32.0 mg/kg/injection, schedule: Q01DX005 (iv), vehicle: saline with Tween-80
  T/C: 162 % of control
dose: 32.0 mg/kg/injection, schedule: Q01DX005 (oral), vehicle: saline with Tween-80
  T/C: 186 % of control
dose: 36.0 mg/kg/injection, schedule: Q04DX002 (ip), vehicle: Klucel (hydroxypropylcellulose) (HPC)
  T/C: 191 % of control
dose: 36.0 mg/kg/injection, schedule: Q04DX002 (ip), vehicle: saline with Tween-80
  T/C: 158 % of control
dose: 36.0 mg/kg/injection, schedule: Q04DX003 (ip), vehicle: water
  T/C: 176 % of control
dose: 40.0 mg/kg/injection, schedule: Q01DX005 (ip), vehicle: Klucel (hydroxypropylcellulose) (HPC)
  T/C: 202 % of control and 90 % of control
dose: 40.0 mg/kg/injection, schedule: Q01DX005 (ip), vehicle: saline with Tween-80
  T/C: 227 % of control
dose: 40.0 mg/kg/injection, schedule: Q04DX003 (ip), vehicle: distilled water + Tween-80
  T/C: 193 % of control
dose: 40.0 mg/kg/injection, schedule: Q04DX003 (ip), vehicle: water
  T/C: 117 % of control
dose: 43.2 mg/kg/injection, schedule: Q04DX002 (ip), vehicle: saline with Tween-80
  T/C: 176 % of control
dose: 50.0 mg/kg/injection, schedule: Q01DX009 (ip), vehicle: saline with Tween-80
  T/C: 86 % of control
dose: 50.0 mg/kg/injection, schedule: Q04DX002 (ip), vehicle: Klucel (hydroxypropylcellulose) (HPC)
  T/C: 168 % of control
dose: 50.0 mg/kg/injection, schedule: Q04DX003 (ip), vehicle: alkali diluted with water
  T/C: 221 % of control
dose: 50.0 mg/kg/injection, schedule: Q04DX003 (ip), vehicle: clinical formulation
  T/C: 181 % of control
dose: 50.0 mg/kg/injection, schedule: Q04DX003 (ip), vehicle: water
  T/C: 167 % of control
dose: 60.0 mg/kg/injection, schedule: Q04DX002 (ip), vehicle: Klucel (hydroxypropylcellulose) (HPC)
  T/C: 198 % of control
dose: 60.0 mg/kg/injection, schedule: Q04DX002 (ip), vehicle: saline with Tween-80
  T/C: 161 % of control
dose: 60.0 mg/kg/injection, schedule: Q04DX003 (ip), vehicle: water
  T/C: 219 % of control
dose: 72.0 mg/kg/injection, schedule: Q04DX002 (ip), vehicle: saline with Tween-80
  T/C: 166 % of control and 199 % of control
dose: 80.0 mg/kg/injection, schedule: Q04DX003 (ip), vehicle: distilled water + Tween-80
  T/C: 190 % of control and 254 % of control
dose: 90.0 mg/kg/injection, schedule: Q04DX002 (ip), vehicle: saline with Tween-80
  T/C: 185 % of control and 190 % of control
dose: 100.0 mg/kg/injection, schedule: Q04DX002 (ip), vehicle: Klucel (hydroxypropylcellulose) (HPC)
  T/C: 220 % of control and 230 % of control
dose: 100.0 mg/kg/injection, schedule: Q04DX003 (ip), vehicle: alkali diluted with water
  T/C: 219 % of control
dose: 100.0 mg/kg/injection, schedule: Q04DX003 (ip), vehicle: water
  T/C: 203 % of control
dose: 120.0 mg/kg/injection, schedule: Q04DX002 (ip), vehicle: saline with Tween-80
  T/C: 157 % of control and 218 % of control
dose: 134.0 mg/kg/injection, schedule: Q04DX002 (ip), vehicle: saline with Tween-80
  T/C: 211 % of control and 214 % of control
dose: 167.0 mg/kg/injection, schedule: Q04DX002 (ip), vehicle: Klucel (hydroxypropylcellulose) (HPC)
  T/C: 207 % of control
dose: 167.0 mg/kg/injection, schedule: Q04DX002 (ip), vehicle: saline with Tween-80
  T/C: 158 % of control
dose: 200.0 mg/kg/injection, schedule: Q04DX002 (ip), vehicle: Klucel (hydroxypropylcellulose) (HPC)
  T/C: 88 % of control
dose: 200.0 mg/kg/injection, schedule: Q04DX003 (ip), vehicle: alkali diluted with water
  T/C: 100 % of control
dose: 300.0 mg/kg/injection, schedule: Q04DX002 (ip), vehicle: saline with Tween-80
  T/C: 165 % of control
